According to patent publication US20120309821A1, “Use of epigallocatechin-3-gallate for immune regulation” (NATIONAL DEFENSE MEDICAL CENTER, priority 2011, published 2012):

What was measured:
Format in all cases: in vivo, mouse
IL-1β = test: Serum IL-1β ELISA; settings: 120 mg/kg by gavage daily; week 34; vs disease control mice
Description: (§1) Female NZB/W F1 mice were purchased from the Animal Center of the National Taiwan University (Taipei, Taiwan, ROC) and, at 12 weeks of age, were divided into two groups, one of which was given normal saline and served as the disease control, while the other was given 120 mg/kg body weight of EGCG (Ryss Lab, Inc., CA, USA) (this dose is a slight modification of those used in previous in vivo studies) by gavage daily till sacrificed at 34-weeks-old. 8-Week-old NZB/W F1 female mice (prior to onset of autoantibody production) were used as normal controls. Urine samples were collected in metabolic cages every 2 weeks and urine protein levels were measured, and serum samples were used to measure serum levels of blood urea nitrogen (BUN) and creatinine (Cr) as described previously (Ka, S. M. et al. Decoy receptor 3 ameliorates an autoimmune crescentic glomerulonephritis model in mice. J Am Soc Nephrol 18:2473-2485; 2007). All animal experiments were performed upon the ethical approval of the Institutional Animal Care and Use Committee of the National Defense Medical Center, Taiwan and according to the ethical rules in the NIH Guide for the Care and Use of Laboratory Animals. Serum levels of IL-1β and IL-18 were measured using commercial ELISA kits (BD Biosciences) according to the manufacturer's instructions.

[1] = system: IgG immune complex deposition in the glomerulus; test: Kidney IgG immune complex deposits by immunofluorescence; settings: 120 mg/kg by gavage daily; week 34; disease control vs EGCG-treated mice
Description: as §1, with “For immune complex detection, frozen renal tissues were prepared and incubated with fluorescein isothiocyanate (FITC)-conjugated goat anti-mouse IgG antibodies (Cappel, N.C., USA). […] Scoring” for “Serum levels”, “staining was recorded.” for “IL-1β and IL-18 were measured using commercial ELISA kits (BD Biosciences) according to the manufacturer's instructions.”

[2] = system: NAD(P)H oxidase subunit p47phox; test: Western blot of cytosolic p47phox in kidney; settings: 120 mg/kg by gavage daily, week 34, increase seen in disease control
Description: as §1, with “[…] Antibodies to histone H3 (Cell Signaling) or β-actin (Santa Cruz) were used as internal controls for the nuclear” for “Serum levels of IL-1β”, “cytosolic target proteins, respectively.” for “IL-18 were measured using commercial ELISA kits (BD Biosciences) according to the manufacturer's instructions.”

IL-18 = test: Serum IL-18 ELISA; settings: 120 mg/kg by gavage daily; week 34; vs disease control mice
Description: as §1

[3] = system: NZB/W F1 lupus-prone mice; test: Kidney histopathological evaluation (H&E); settings: 120 mg/kg by gavage daily; week 34; H&E kidney sections; vs disease control mice
Description: as §1, with “Formalin-fixed” for “Serum levels of IL-1β”, “paraffin-embedded renal sections” for “IL-18”, “prepared for pathologic evaluation.” for “measured using commercial ELISA kits (BD Biosciences) according to the manufacturer's instructions.”

NLRP3 = test: Western blot of NLRP3 in kidney; settings: 120 mg/kg by gavage daily; week 34; increase seen in disease control
Description: as §1, with “[…] Antibodies to histone H3 (Cell Signaling) or β-actin (Santa Cruz) were used as internal controls for the nuclear” for “Serum levels of IL-1β”, “cytosolic target proteins, respectively.” for “IL-18 were measured using commercial ELISA kits (BD Biosciences) according to the manufacturer's instructions.”

Epigallocatechin-3-gallate [EGCG]
serum levels of IL-1β (IL-1β): significantly lower
IgG immune complex deposition in the glomerulus [1]: no significant difference
levels of NAD(P)H oxidase subunit p47phox [2]: abolished
serum levels of IL-18 (IL-18): significantly lower
severe renal lesions (glomerular proliferation, crescents, interstitial inflammation, fibrosis) [3]: greatly reduced
levels of NLRP3 protein in kidney tissues (NLRP3): inhibited
